Assay results as given in patent US20170173106A1, “Polypeptide Fragments of 168A-T2 and Compositions Comprising Them for Use in Treating Cancer” (GENE SIGNAL INTERNATIONAL SA, priority 2014, published 2017).

Assays:
[1] = tested on: endostatin; assay: Endostatin production by HUVECs (ELISA); assay type: cell-based, human; details: rising concentrations; 48 hrs
Description: HUVECs were transfected with siRNA using transfecting agent GENJET according to the manufacturer's instructions. After 48 hrs of incubation, supernatants were collected, protein expression tested by western blots and endostatin quantified.
Endostatin levels were quantified by ELISAs on lysates of HUVECs incubated at rising concentrations of P3 or PCT for 48 hrs.
In order to evaluate the role of metalloproteinases (MMPs) in endostatin production, a polyvalent inhibitor of MMPs, GM6001 was used. The concentration of endostatin in supernatants is at 6.2 ng/mg of protein of the lysates/48 hrs. […] GM6001 inhibits endostatin production induced by P3. MMPs might then be implicated in endostatin production induced by P3.
HUVECs were incubated for 48 hrs in an EGM2-MV media with an anti-CD151 antibody (11G5a) or an irrelevant antibody (negative control unable to recognize any protein). Then endostatin levels were measured by ELISA in supernatants.
HUVECs cells were transfected with specific siRNA of CD151 and CD9. Protein expression was analyzed in western blots. In parallel, endostatin levels were measured by ELISA in supernatants. […] Levels of endostatin in supernatant of HUVECs cells transfected with siRNA were measured. […] On the contrary, levels of endostatin increased at 9.4 ng/mg of protein lysates/48 hrs in HUVECs depleted in CD151 (FIG. 18B). CD151 is thus involved in the production of endostatin.

[2] = target: T1, CD9-CD9P-1 complex (Homo sapiens, UniProt P21926+Q9P2B2); assay: Immunoprecipitation in HUVECs: CD9P-1 with CD9; assay type: cell-based; details: 33 μM; 2 hrs
T1 construct: endogenous in cells; host or cells: HUVEC
T1 sequence (Q9P2B2 26-879): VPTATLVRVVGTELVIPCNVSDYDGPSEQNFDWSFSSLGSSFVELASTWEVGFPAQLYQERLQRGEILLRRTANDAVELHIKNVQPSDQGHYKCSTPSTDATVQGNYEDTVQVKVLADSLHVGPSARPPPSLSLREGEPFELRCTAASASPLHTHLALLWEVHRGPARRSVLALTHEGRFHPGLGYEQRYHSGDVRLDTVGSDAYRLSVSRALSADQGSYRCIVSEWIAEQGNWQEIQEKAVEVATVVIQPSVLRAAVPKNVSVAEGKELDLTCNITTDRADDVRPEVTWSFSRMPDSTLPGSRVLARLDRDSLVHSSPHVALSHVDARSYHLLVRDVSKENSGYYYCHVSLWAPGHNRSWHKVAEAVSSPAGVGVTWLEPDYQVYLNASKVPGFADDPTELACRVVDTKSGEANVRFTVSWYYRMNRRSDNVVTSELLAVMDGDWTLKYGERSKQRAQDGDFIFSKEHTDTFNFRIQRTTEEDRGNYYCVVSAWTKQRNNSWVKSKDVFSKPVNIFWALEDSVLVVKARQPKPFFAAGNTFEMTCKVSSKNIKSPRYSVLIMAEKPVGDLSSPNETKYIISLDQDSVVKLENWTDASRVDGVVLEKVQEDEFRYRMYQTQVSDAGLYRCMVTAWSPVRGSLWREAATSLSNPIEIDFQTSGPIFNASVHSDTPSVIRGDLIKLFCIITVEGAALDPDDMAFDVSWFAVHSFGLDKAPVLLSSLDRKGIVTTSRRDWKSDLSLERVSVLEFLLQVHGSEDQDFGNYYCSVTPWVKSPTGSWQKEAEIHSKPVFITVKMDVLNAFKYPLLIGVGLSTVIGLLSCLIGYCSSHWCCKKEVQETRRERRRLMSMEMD
T1 sequence (P21926 2-228 limits assumed): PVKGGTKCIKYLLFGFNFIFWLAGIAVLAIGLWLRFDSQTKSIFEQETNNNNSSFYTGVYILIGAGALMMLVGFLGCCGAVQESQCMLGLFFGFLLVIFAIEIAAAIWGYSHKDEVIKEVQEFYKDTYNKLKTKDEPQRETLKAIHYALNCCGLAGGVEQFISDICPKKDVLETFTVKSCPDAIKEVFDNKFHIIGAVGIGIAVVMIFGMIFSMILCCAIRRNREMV
Description: FIG. 13 is a photograph representing the dissociation of CD9-CD9P-1, CD9P-1-CD151 and CD9-CD151 complexes by P3 in HUVECs. HUVECs incubated for 2 h with 33 μM P3, PCT or solvent in EGM2-MV medium were lysed in brij 97 buffer, then CD81, CD9 or CD151 were immunoprecipitated with the corresponding antibody. Line A: Western blot results obtained with anti-CD9P-1 antibody from immunoprecipitated CD81, CD9 and CD151. Line B: Western blot results obtained with anti-CD9 antibody from immunoprecipitated CD81, CD9 and CD151. Line C: Western blot results obtained with anti-CD151 antibody from immunoprecipitated CD81, CD9 and CD151. PCT: control peptide. IP: immunoprecipitation.
To study more precisely the effect of P3 on the associations of tetraspanins CD9, CD81, and CD151 between them and with CD9P-1, immunoprecipitation (IP) experiments were performed. In the control experiment (with the solvent), CD9P-1 co-precipitated with CD9 and CD81. A weak co-precipitation was observed between […] and CD151. The associations between tetraspanins and CD9P-1 are not modified under PCT condition. However, the interactions between CD9P-1 and CD9 and between CD9P-1 and CD151 are decreased while the HUVECs are incubated for 2 hrs with 33 μM of P3. The association between CD9P-1 and CD81 is not modified by P3 (FIG. 13A).

Q: With NQKGCYDLVT (control peptide) [PCT] as the sequence, how does the “level of endostatin compared to the solvent condition” value [1] read?
A: does not modify the level of endostatin

Q: What about the “interaction between CD9P-1 and CD9” value [2] of the same sequence?
A: not modified
